Assay results as given in PubChem BioAssay AID743137 (The Scripps Research Institute Molecular Screening Center, 2013).
Activity calls are given as the source filed them.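 The calls were made as follows: active = LYPLA1 and LYPLA2 each at a ratio of 0.5 or below, with under two anti-target hydrolases also at that level; inactive = the rest.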

How the values were obtained:
Assay in all cases: proteome-wide serine hydrolase selectivity of LYPLA inhibitors, late-stage follow-up, selectivity assay for LYPLA1/LYPLA2 inhibitor project, cell-based, HeLa, LC-MS, SILAC, powders (AID 743137)
[1] = test system: LYPLAL1; settings: HeLa SILAC ABPP, FP-biotin LC-MS, serine hydrolase panel, at 1 µM, stronger effect = lower value
[2] = test system: SCPEP1; settings: HeLa SILAC ABPP, FP-biotin LC-MS, serine hydrolase panel, at 1 µM, stronger effect = lower value
[3] = test system: ABHD6; settings: HeLa SILAC ABPP, FP-biotin LC-MS, serine hydrolase panel, at 1 µM, stronger effect = lower value
[4] = biological target: Lysosomal protective protein (Homo sapiens) (UniProt P10619); settings: HeLa SILAC ABPP, FP-biotin LC-MS, serine hydrolase panel; CTSA; at 1 µM; stronger effect = lower value
Lysosomal protective protein (Homo sapiens), sequence (P10619 whole entry, looked up): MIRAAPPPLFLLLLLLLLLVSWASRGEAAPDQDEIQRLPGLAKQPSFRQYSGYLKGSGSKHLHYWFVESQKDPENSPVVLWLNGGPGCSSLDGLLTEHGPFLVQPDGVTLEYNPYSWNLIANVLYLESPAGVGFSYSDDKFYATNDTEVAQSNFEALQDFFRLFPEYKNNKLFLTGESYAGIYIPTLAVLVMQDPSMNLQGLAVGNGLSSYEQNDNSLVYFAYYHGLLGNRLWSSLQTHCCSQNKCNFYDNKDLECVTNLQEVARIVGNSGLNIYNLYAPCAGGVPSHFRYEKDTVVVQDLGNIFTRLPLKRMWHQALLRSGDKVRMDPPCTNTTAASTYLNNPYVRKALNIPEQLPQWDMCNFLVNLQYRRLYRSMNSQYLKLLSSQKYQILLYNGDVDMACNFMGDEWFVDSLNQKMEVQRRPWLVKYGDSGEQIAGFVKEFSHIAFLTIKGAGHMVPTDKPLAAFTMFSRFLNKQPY

[5] = test system: PNPLA6; settings: HeLa SILAC ABPP, FP-biotin LC-MS, serine hydrolase panel, at 1 µM, stronger effect = lower value
[6] = biological target: Acyl-protein thioesterase 2 (Homo sapiens) (UniProt O95372); settings: HeLa SILAC ABPP, FP-biotin LC-MS, serine hydrolase panel; LYPLA2; at 1 µM; stronger effect = lower value
Acyl-protein thioesterase 2 (Homo sapiens), sequence (O95372 whole entry, looked up): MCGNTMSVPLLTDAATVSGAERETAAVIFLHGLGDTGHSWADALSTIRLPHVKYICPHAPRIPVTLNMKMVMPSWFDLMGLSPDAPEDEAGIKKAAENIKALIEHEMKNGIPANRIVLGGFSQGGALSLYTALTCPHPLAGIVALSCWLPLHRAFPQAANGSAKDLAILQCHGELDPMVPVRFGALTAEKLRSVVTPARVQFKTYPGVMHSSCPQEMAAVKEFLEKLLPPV

[7] = test system: ABHD10; settings: HeLa SILAC ABPP, FP-biotin LC-MS, serine hydrolase panel, at 1 µM, stronger effect = lower value
[8] = test system: NCEH1; settings: HeLa SILAC ABPP, FP-biotin LC-MS, serine hydrolase panel, at 1 µM, stronger effect = lower value
[9] = test system: ESD; settings: HeLa SILAC ABPP, FP-biotin LC-MS, serine hydrolase panel, at 1 µM, stronger effect = lower value
[10] = biological target: Prolyl endopeptidase FAP (Homo sapiens) (UniProt Q12884); settings: HeLa SILAC ABPP, FP-biotin LC-MS, serine hydrolase panel, at 1 µM, stronger effect = lower value
Prolyl endopeptidase FAP (Homo sapiens), sequence (Q12884 whole entry, looked up): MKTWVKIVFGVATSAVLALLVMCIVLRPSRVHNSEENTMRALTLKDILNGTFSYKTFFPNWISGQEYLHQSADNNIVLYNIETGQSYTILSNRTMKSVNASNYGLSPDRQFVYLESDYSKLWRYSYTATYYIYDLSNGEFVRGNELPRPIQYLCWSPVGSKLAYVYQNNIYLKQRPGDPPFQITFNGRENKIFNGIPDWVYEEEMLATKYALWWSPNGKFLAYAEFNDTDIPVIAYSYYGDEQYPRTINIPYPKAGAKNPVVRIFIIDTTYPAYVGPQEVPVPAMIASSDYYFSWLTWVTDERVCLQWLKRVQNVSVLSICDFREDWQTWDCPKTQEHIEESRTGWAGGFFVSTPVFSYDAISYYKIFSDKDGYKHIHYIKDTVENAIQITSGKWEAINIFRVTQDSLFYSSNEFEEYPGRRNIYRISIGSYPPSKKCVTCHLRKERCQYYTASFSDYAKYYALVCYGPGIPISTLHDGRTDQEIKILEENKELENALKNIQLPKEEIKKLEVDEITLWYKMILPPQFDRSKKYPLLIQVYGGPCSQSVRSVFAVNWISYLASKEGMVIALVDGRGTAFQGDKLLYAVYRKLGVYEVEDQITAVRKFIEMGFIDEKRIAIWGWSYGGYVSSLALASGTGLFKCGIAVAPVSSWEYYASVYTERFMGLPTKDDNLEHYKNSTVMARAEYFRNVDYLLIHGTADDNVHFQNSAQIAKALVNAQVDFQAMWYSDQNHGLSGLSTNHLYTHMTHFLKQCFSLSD

[11] = biological target: Acylamino-acid-releasing enzyme (Homo sapiens) (UniProt P13798); settings: HeLa SILAC ABPP, FP-biotin LC-MS, serine hydrolase panel; APEH; at 1 µM; stronger effect = lower value
[12] = test system: ABHD12; settings: HeLa SILAC ABPP, FP-biotin LC-MS, serine hydrolase panel, at 1 µM, stronger effect = lower value
[13] = biological target: PNPLA4 (UniProt P41247); settings: HeLa SILAC ABPP, FP-biotin LC-MS, serine hydrolase panel, at 1 µM, stronger effect = lower value
PNPLA4, sequence (P41247 whole entry, looked up): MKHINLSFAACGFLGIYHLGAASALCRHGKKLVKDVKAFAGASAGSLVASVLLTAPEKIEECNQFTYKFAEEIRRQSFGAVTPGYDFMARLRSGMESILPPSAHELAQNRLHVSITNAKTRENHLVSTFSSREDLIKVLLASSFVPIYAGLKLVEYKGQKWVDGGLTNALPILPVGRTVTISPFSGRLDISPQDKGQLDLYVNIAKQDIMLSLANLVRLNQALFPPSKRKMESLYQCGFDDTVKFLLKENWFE

[14] = biological target: Acyl-coenzyme A thioesterase 2, mitochondrial (Homo sapiens) (UniProt P49753); settings: HeLa SILAC ABPP, FP-biotin LC-MS, serine hydrolase panel; ACOT2; at 1 µM; stronger effect = lower value
Acyl-coenzyme A thioesterase 2, mitochondrial (Homo sapiens), sequence (P49753 whole entry, looked up): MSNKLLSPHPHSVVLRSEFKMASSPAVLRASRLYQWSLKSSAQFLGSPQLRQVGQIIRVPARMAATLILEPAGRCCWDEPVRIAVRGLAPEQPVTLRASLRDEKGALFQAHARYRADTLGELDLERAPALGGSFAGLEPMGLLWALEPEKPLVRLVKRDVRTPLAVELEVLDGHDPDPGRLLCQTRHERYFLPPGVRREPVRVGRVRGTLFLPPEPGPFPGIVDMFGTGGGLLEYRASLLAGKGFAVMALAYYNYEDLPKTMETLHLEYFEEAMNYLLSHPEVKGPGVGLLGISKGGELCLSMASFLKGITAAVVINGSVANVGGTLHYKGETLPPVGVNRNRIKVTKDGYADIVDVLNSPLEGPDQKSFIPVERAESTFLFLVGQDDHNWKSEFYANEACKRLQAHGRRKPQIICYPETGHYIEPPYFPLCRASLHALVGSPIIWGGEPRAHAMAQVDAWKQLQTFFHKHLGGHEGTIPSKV

[15] = biological target: Platelet-activating factor acetylhydrolase IB subunit alpha1 (Homo sapiens) (UniProt Q15102); settings: HeLa SILAC ABPP, FP-biotin LC-MS, serine hydrolase panel; PAFAH1B3; at 1 µM; stronger effect = lower value
[16] = biological target: Platelet-activating factor acetylhydrolase IB subunit alpha2 (Homo sapiens) (UniProt P68402); settings: HeLa SILAC ABPP, FP-biotin LC-MS, serine hydrolase panel; PAFAH1B2; at 1 µM; stronger effect = lower value
Platelet-activating factor acetylhydrolase IB subunit alpha2 (Homo sapiens), sequence (P68402 whole entry, looked up): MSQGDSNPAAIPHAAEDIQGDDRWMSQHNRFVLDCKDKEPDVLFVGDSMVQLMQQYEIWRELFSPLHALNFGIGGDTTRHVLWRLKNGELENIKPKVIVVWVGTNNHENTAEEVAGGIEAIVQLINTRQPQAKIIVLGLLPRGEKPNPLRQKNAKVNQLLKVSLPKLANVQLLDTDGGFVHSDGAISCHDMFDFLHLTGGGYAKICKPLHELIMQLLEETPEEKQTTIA

[17] = test system: MAGL (MGLL); settings: HeLa SILAC ABPP, FP-biotin LC-MS, serine hydrolase panel, at 1 µM, stronger effect = lower value
[18] = test system: FAM108B1; settings: HeLa SILAC ABPP, FP-biotin LC-MS, serine hydrolase panel, at 1 µM, stronger effect = lower value
[19] = biological target: Lysosomal Pro-X carboxypeptidase (Homo sapiens) (UniProt P42785); settings: HeLa SILAC ABPP, FP-biotin LC-MS, serine hydrolase panel; PRCP; at 1 µM; stronger effect = lower value
[20] = biological target: sn-1-specific diacylglycerol lipase ABHD11 (Homo sapiens) (UniProt Q8NFV4); settings: HeLa SILAC ABPP, FP-biotin LC-MS, serine hydrolase panel, at 1 µM, stronger effect = lower value
sn-1-specific diacylglycerol lipase ABHD11 (Homo sapiens), sequence (Q8NFV4 whole entry, looked up): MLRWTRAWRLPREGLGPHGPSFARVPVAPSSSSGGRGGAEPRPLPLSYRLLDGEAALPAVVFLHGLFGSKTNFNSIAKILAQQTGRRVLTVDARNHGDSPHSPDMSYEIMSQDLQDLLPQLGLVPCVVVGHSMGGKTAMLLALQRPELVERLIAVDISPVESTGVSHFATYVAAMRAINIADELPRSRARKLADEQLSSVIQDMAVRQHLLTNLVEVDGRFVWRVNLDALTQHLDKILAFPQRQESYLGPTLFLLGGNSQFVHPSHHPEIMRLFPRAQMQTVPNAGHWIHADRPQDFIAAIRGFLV

[21] = biological target: FAM111B (UniProt Q6SJ93); settings: HeLa SILAC ABPP, FP-biotin LC-MS, serine hydrolase panel, at 1 µM, stronger effect = lower value
FAM111B, sequence (Q6SJ93 whole entry, looked up): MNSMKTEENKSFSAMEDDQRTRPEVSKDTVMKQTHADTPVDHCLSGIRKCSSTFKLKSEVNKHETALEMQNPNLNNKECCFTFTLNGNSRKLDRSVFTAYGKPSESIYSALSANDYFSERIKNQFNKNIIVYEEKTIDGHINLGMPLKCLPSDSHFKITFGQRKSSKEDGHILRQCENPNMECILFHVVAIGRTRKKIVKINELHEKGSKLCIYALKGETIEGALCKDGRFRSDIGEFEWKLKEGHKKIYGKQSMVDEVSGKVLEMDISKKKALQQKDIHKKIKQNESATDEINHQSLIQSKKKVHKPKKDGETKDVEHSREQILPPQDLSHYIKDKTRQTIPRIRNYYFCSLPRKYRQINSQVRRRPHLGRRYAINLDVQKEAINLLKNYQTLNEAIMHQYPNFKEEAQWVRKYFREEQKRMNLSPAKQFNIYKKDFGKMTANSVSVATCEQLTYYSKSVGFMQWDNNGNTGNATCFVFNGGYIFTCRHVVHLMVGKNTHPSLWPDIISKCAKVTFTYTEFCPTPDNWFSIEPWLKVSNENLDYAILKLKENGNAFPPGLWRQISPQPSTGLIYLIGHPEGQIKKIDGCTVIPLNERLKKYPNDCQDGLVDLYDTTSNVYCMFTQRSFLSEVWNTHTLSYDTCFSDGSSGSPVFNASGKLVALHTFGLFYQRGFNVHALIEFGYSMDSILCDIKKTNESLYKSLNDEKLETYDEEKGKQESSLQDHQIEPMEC

[22] = biological target: Prolyl endopeptidase-like (Homo sapiens) (UniProt Q4J6C6); settings: HeLa SILAC ABPP, FP-biotin LC-MS, serine hydrolase panel; PREPL; at 1 µM; stronger effect = lower value
Prolyl endopeptidase-like (Homo sapiens), sequence (Q4J6C6 whole entry, looked up): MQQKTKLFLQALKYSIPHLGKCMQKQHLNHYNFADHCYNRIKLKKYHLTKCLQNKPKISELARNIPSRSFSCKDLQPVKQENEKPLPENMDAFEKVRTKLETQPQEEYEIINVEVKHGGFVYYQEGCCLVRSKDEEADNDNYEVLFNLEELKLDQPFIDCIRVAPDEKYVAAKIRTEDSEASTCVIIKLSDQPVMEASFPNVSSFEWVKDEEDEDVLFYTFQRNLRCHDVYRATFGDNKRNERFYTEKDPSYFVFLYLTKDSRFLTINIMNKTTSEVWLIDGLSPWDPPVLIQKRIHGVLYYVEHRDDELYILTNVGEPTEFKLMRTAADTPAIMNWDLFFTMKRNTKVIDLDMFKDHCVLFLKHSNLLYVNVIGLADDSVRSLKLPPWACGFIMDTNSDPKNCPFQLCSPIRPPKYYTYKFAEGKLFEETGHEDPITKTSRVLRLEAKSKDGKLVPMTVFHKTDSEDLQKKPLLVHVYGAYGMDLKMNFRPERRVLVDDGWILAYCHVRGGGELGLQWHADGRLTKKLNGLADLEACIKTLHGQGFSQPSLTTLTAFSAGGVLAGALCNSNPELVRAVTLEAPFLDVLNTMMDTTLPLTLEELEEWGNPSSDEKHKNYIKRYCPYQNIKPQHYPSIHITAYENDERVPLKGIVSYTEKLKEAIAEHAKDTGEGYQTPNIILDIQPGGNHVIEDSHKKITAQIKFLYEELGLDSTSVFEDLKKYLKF

[23] = biological target: Dipeptidyl peptidase 8 (Homo sapiens) (UniProt Q6V1X1); settings: HeLa SILAC ABPP, FP-biotin LC-MS, serine hydrolase panel; DPP8; at 1 µM; stronger effect = lower value
[24] = biological target: Platelet-activating factor acetylhydrolase 2, cytoplasmic (Homo sapiens) (UniProt Q99487); settings: HeLa SILAC ABPP, FP-biotin LC-MS, serine hydrolase panel; PAFAH2; at 1 µM; stronger effect = lower value
[25] = biological target: Lysosomal phospholipase A and acyltransferase (Homo sapiens) (UniProt Q8NCC3); settings: HeLa SILAC ABPP, FP-biotin LC-MS, serine hydrolase panel; PLA2G15; at 1 µM; stronger effect = lower value
Lysosomal phospholipase A and acyltransferase (Homo sapiens), sequence (Q8NCC3 whole entry, looked up): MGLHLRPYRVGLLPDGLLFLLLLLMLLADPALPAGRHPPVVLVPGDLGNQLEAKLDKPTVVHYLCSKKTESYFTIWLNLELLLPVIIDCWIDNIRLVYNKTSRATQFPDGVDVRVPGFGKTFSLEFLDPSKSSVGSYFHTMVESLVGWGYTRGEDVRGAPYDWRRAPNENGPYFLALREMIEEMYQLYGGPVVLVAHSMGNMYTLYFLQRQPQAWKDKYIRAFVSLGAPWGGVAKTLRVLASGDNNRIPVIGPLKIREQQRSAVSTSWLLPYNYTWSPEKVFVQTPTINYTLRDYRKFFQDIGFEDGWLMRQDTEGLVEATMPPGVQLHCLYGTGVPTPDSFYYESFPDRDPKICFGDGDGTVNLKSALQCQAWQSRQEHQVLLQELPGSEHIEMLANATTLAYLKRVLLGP

[26] = biological target: Acyl-protein thioesterase 1 (Homo sapiens) (UniProt O75608); settings: HeLa SILAC ABPP, FP-biotin LC-MS, serine hydrolase panel; LYPLA1; at 1 µM; stronger effect = lower value
Acyl-protein thioesterase 1 (Homo sapiens), sequence (O75608 whole entry, looked up): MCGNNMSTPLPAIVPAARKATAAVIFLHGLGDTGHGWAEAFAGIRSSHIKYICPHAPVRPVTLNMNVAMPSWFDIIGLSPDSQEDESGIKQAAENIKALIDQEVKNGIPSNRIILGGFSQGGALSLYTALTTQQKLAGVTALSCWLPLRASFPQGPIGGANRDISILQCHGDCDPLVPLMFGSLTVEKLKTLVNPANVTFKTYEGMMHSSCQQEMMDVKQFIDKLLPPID

inhibitor/DMSO ratio [1]: 1.7 (inactive)
inhibitor/DMSO ratio [2]: 0.93 (inactive)
inhibitor/DMSO ratio [3]: 0.05
inhibitor/DMSO ratio [4]: 1.1 (inactive)
inhibitor/DMSO ratio [5]: 1.2 (inactive)
inhibitor/DMSO ratio [6]: 0.084
inhibitor/DMSO ratio [7]: 1.3 (inactive)
inhibitor/DMSO ratio [8]: 0.98 (inactive)
inhibitor/DMSO ratio [9]: 1.2 (inactive)
inhibitor/DMSO ratio [10]: 1 (inactive)
inhibitor/DMSO ratio [11]: 1.3 (inactive)
inhibitor/DMSO ratio [12]: 0.83 (inactive)
inhibitor/DMSO ratio [13]: 1.2 (inactive)
inhibitor/DMSO ratio [14]: 1.4 (inactive)
inhibitor/DMSO ratio [15]: 1.4 (inactive)
inhibitor/DMSO ratio [16]: 1.2 (inactive)
inhibitor/DMSO ratio [17]: 0.57 (inactive)
inhibitor/DMSO ratio [18]: 0.98 (inactive)
inhibitor/DMSO ratio [19]: 0.93 (inactive)
inhibitor/DMSO ratio [20]: 1.3 (inactive)
inhibitor/DMSO ratio [21]: 1.4 (inactive)
inhibitor/DMSO ratio [22]: 1.5 (inactive)
inhibitor/DMSO ratio [23]: 1.4 (inactive)
inhibitor/DMSO ratio [24]: 1.4 (inactive)
inhibitor/DMSO ratio [25]: 1.4 (inactive)
inhibitor/DMSO ratio [26]: 0.05
SMILES: O=C(ON1C(=O)C2CN(C(=O)N3CCOCC3)CCN2C1=O)N1CCC(CCc2ccc(Cl)cc2)CC1 (stereo unspecified)
